Test results as given in patent US12492337B2, “Fluorescent probe, preparation method therefor and use thereof” (FLUORESCENCE DIAGNOSIS (SHANGHAI) BIOTECH COMPANY, priority 2017, dated 2025).

Experiments:
[1] = test system: SNAP protein; test: Labeling speed and fluorescence intensity, purified SNAP protein, microplate reader (Example 95); format: biochemical
Method: To verify that the probe-labeled HaloTag protein tag has a faster labeling speed and higher fluorescence intensity than the probe-labeled SNAP protein tag, a probe 48-labeled HaloTag protein tag and a reference probe 85-labeled SNAP protein tag were taken as examples (probe 48 and reference probe 85 have the same fluorescent dye portion). When labeling, the purified HaloTag protein and SNAP protein were first diluted to 7.5 μM with PBS.
Probe 48 and reference probe 85 were diluted to 15 μM with PBS, and 20 μL of probe 48 was added to 80 μL of HaloTag protein and mixed, 20 μL of reference probe 85 was added to 80 μL of SNAP protein and mixed, and a microplate reader was used to monitor the changes in fluorescence intensity of the two solutions excited at 620 nm and emitted at 650 nm, which lasted for two hours.

[2] = Quantum yield of free probe not reacted with protein tag; format: physicochemical
Method: (§1) A probe was mixed with a corresponding HaloTag protein tag to obtain a mixed sample. The final concentration of the probe in the mixed sample was 5 μM and the final concentration of the protein tag was 10 μM. The mixed sample was incubated at 37° C. for 1 hour, and the sample was detected using a fluorescence spectrophotometer.

[3] = test system: HaloTag protein tag; test: Probe mixed with HaloTag protein tag, fluorescence spectrophotometer (Example 86); format: biochemical; conditions: 5 μM probe, 10 μM protein tag, 37° C., 1 hour; for Fluorescence enhancement: fluorescence activation multiple after binding protein tag; for Emission/nm: fluorescence emission wavelength
Method: as §1

[4] = Viscosity responsiveness: fluorescence intensity in glycerol versus methanol; format: physicochemical; conditions: fluorescence intensity in glycerol to that in methanol
In short: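 At 25 °C, with the same dye concentration and excitation wavelength, maximum emission intensity in glycerol was compared with intensity in methanol, giving a ratio. Dye concentrations ranged from 1×10^−7 M to 1×10^−5 M.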

[5] = test system: HaloTag protein tags in different subcellular organelles of Hela cells; test: Labeling HaloTag protein tags in different subcellular organelles of Hela cells (Example 90); format: cell-based; conditions: 0.2 μM probe, 2 hours, no washing; cytoskeleton, mitochondria, nucleus, Golgi, whole cells, lysosomes
Method: In order to verify that probe 57, probe 59, probe 60, probe 61, probe 62, and probe 63 can be used to label target proteins located in different organelles. Hela cells were used as examples to detect the effect of probes on labeling HaloTag protein tags in different subcellular organelles. Hela cells were implanted 5000 cells per well in 96-well glass-bottom cell culture plates. After 14 hours, lipo2000 kit was used to transfect the plasmids localized by HaloTag protein tags in different organelles. The original culture medium was removed 24 hours after transfection, and the cells were washed twice with a phenol red-free DMEM medium, and incubated for 2 hours in a phenol red-free medium containing 0.2 μM probes, and the effect of cell labelling was detected by imaging using a Leica TCS-8 confocal microscope.

[6] = test system: Hela cells stably expressing HaloTag protein tags; test: Confocal imaging of labeled Hela cells stably expressing HaloTag protein tags (Example 89); format: cell-based; conditions: Homo sapiens, 5 μM probe, 2 hours, 37° C., confocal microscope, read-out: fluorescence signal enhancement in Hela cells expressing the protein tag
Method: (§2) Hela cells are used as an example to test the labeling effect of compounds in mammalian cells. Hela cells and Hela-WT cells (Hela primitive cell, without a protein tag expressed) stably expressing HaloTag protein tags were planted in 14 mm 96-well glass bottom cell culture plates and stabilized for 10 hours. Probe 57, probe 59, probe 60, probe 61, probe 69, probe 75, probe 76, probe 82 were added to the culture medium and diluted to 5 μM, respectively. The cells were incubated in a 37° C. carbon dioxide incubator for 2 hours, and the fluorescence changes of the labeled cells were detected by imaging with a Leica TPS-8 confocal microscope.

[7] = test system: Hela-WT cells; test: Confocal imaging of Hela-WT cells without protein tag (Example 89); format: cell-based; conditions: 5 μM probe, 2 hours, 37° C., confocal microscope
Method: as §2

[8] = test system: fusion protein CX43-HaloTag; test: Tracing assembly of CX43-HaloTag intercellular channels in Hela cells (Example 94); format: cell-based; conditions: 1 μM probe added after labeling with probe 61 and washing
Excerpt: To verify that the probe can be used to monitor the assembly and degradation of biomacromolecules in mammalian cells in real time, Hela cells were used as an example to detect the process of tracing, by a probe, the assembly of intercellular protein CX43 to form intercellular channels in mammalian cells. The C-terminus of CX43 gene was fused with HaloTag gene, and a Hela cell line stably expressing the fusion protein CX43-HaloTag was constructed and obtained by lentiviral infection technology. Hela-CX43-HaloTag cell lines were implanted in a 20 mm glass-bottom cell culture dish 10 hours before the probe labeling. When labeling, the probe 61 μM was first diluted to 2 μM with phenol red-free DMEM medium and replaced the original cell culture medium. The cells were incubated in a 37° C. carbon dioxide incubator for 1 hour. Thereafter, the cells were washed twice with fresh phenol red-free DMEM medium, and the unbound probe 61 was removed at intervals of 2 min. Then, a DMEM phenol-free medium containing 1 μM probe 57 was added to label the cells, and a Leica SP8 confocal microscope was used to monitor the fluorescence intensity and position changes of labeled cells at the corresponding fluorescence channels of probe 61 and probe 57 for a long time, which are shown in FIGS. 17A and 17B, respectively. […]

[9] = test system: HaloTag protein tag expressed in the liver; test: Labeling of HaloTag protein tag expressed in mouse liver, in vivo imaging system (Example 92); set-up: species or system mice; conditions: 0.4 μM probe in 200 ul PBS via tail vein, 6 hours later
Method: First, a plasmid pcdna3.1-HaloTag (sample group) expressing the HaloTag protein tag and a control plasmid pcdna3.1-CAT (control group) not expressing the HaloTag protein tag were introduced into mice. This method is to dissolve the plasmid in a large volume of solution and inject it into mice quickly through tail vein injection. The mouse liver absorbs DNA and then expresses the target protein. 20 hours after the plasmid injection, 0.4 μM probe 77 dissolved in 200 ul of PBS was injected into the mice via tail vein injection to label the HaloTag protein tag; 6 hours later, the mice were dissected out, and the fluorescence differences in the liver parts of different mouse samples were detected by KODAK multi-spectral in vivo imaging system.
The fluorescence of the liver of the control plasmid pcdna3.1-CAT injected with the probe 77 was very low, which was close to the background fluorescence level of the blank liver without the probe injected, and the liver of the HaloTag plasmid pcdna3.1-HaloTag injected with the probe 77 had strong fluorescence, and the signal intensity was more than 20 times that of the control group.

SMILES | The quantum yield of the free probe [2] | The quantum yield after binding to Halo-tag [3] | Emission/nm [3] [nm] | ratio [4] | labeling time of the SNAP protein tag labeled by the probe ([1]; 20 μL 15 μM probe + 80 μL 7.5 μM protein in PBS, excited at 620 nm, emitted at 650 nm) | fluorescence intensity lower than the former (probe 48-labeled HaloTag) by ([1]; same conditions as probe 48 with HaloTag protein) [time] | Fluorescence enhancement [3] | effect of cell labelling of subcellular organelles [5] | fold induction at 5 µM [6] | fluorescent signal in Hela-WT cells [7] | fluorescent signal in the probe 57 channel when just added [8] | liver fluorescence signal intensity relative to the control group ([9]; mice with pcdna3.1-HaloTag) | fluorescence of the liver of control plasmid pcdna3.1-CAT mice ([9]; mice without HaloTag expression)
CN(CCOC(=O)NCc1ccc(COc2nc(N)nc3[nH]cnc23)cc1)c1cc2c(s1)-c1sc(/C=C(\C#N)C(=O)OC(C)(C)C)cc1C2(C)C [Reference Probe85, reference compound] | <0.001 | 0.32 | 645 | 510 | about 7 min | ≥ 1 | 321 |  |  |  |  |  | 
CN(C)c1cc2c(s1)-c1sc(/C=C(\C#N)C(=S)NCCOCCOCCCCCCCl)cc1C2(C)C [Probe 82] | <0.001 | 0.51 | 660 | 475 |  |  | 781 |  | ~200 | no corresponding fluorescent signal could be detected |  |  | 
CN(C)c1ccc(/C=C(\C#N)C(=O)NCCOCCOCCCCCCCl)cc1 [Probe 57] | <0.001 | 0.56 | 480 | 762 |  |  | 1026 | clearly display a variety of subcellular organelle structures without washing | ~200 | no corresponding fluorescent signal could be detected | fluorescent signal could not be detected |  | 
CN(C)c1cc2c(s1)-c1sc(/C=C(\C#N)C(=O)OCCOCCOCCCCCCCl)cc1C2(C)C [Probe 77] | 0.0014 | 0.53 | 652 | 479 |  |  | 721 |  |  |  |  | more than 20 times | very low
N#C/C(=C\c1cc2c3c(c1)CCCN3CCC2)C(=O)NCCOCCOCCCCCCCl [Probe 59] | <0.001 | 0.45 | 500 | 370 |  |  | 498 | clearly display a variety of subcellular organelle structures without washing | ~200 | no corresponding fluorescent signal could be detected |  |  | 

More lines, main results first:

The quantum yield of the free probe [2] | The quantum yield after binding to Halo-tag [3] | Emission/nm [3] [nm] | ratio [4] | SMILES | labeling time of the SNAP protein tag labeled by the probe ([1]; 20 μL 15 μM probe + 80 μL 7.5 μM protein in PBS, excited at 620 nm, emitted at 650 nm) | fluorescence intensity lower than the former (probe 48-labeled HaloTag) by ([1]; same conditions as probe 48 with HaloTag protein) [time] | Fluorescence enhancement [3] | effect of cell labelling of subcellular organelles [5] | fold induction at 5 µM [6] | fluorescent signal in Hela-WT cells [7] | fluorescent signal in the probe 57 channel when just added [8] | liver fluorescence signal intensity relative to the control group ([9]; mice with pcdna3.1-HaloTag) | fluorescence of the liver of control plasmid pcdna3.1-CAT mice ([9]; mice without HaloTag expression)
0.0015 | 0.70 | 570 | 531 | CN(C)c1ccc2cc(/C=C(\C#N)C(=O)NCCOCCOCCCCCCCl)sc2c1 [Probe 63] |  |  | 486 | clearly display a variety of subcellular organelle structures without washing |  |  |  |  | 
<0.001 | 0.47 | 610 | 317 | CN(C)c1ccc2nc(/C=C(\C#N)C(=O)NCCOCCOCCCCCCCl)oc2c1 [Probe 69] |  |  | 491 |  | ~200 | no corresponding fluorescent signal could be detected |  |  | 
<0.001 | 0.57 | 590 | 711 | CN(C)c1ccc2nc(/C=C(\C#N)C(=O)NCCOCCOCCCCCCCl)ccc2c1 [Probe 62] |  |  | 592 | clearly display a variety of subcellular organelle structures without washing |  |  |  |  | 
0.0021 | 0.56 | 620 | 500 | CN(C)c1cc2sc3cc(/C=C(\C#N)C(=O)NCCOCCOCCCCCCCl)sc3c2s1 [Probe 75] |  |  | 589 |  | ~200 | no corresponding fluorescent signal could be detected |  |  | 
0.0011 | 0.58 | 640 | 386 | CN(C)c1cc2c(s1)-c1sc(/C=C(\C#N)C(=O)NCCOCCOCCCCCCCl)cc1C2(C)C [Probe 76] |  |  | 666 |  | ~200 | no corresponding fluorescent signal could be detected |  |  | 
0.0011 | 0.65 | 520 | 1199 | CN1CCSc2cc(/C=C(\C#N)C(=O)NCCOCCOCCCCCCCl)ccc21 [Probe 60] |  |  | 751 | clearly display a variety of subcellular organelle structures without washing | ~200 | no corresponding fluorescent signal could be detected |  |  | 
